Measured values published in patent US5387709A, “Substituted sulfonamides, process of preparation and medicines containing same” (Lipha Lyonnaise Industrielle Pharmaceutique, priority 1990, dated 1995).

What was measured:
[1] = tested on: platelets of guinea-pig; test: Inhibition of the platelet aggregation induced by U46619 (BORN test), guinea-pig platelets; assay type: cell-based; conditions: Cavia porcellus, Platelet, read-out: PLATELET AGGREGATION GUINEA-PIG IC 50
Excerpt: (A) Inhibition of the platelet aggregation induced by U46619, a stable analogue of TXA2 (9,11-dideoxy-11α,9α-epoxymethanoprostaglandine F2 α):
The tests determine a concentration of compound which inhibits at 50% (CI50) a liminar aggregation induced by U46619. The activities of the compounds of the present invention are given in example 108.
(§1) The products of examples 1 to 107 have been tested for platelet aggregation on guinea-pig and on the contraction of the aorta in rat as described previously.

[2] = tested on: rat aorta; test: Inhibition of the U46619 induced rat aorta vasoconstriction; assay type: cell-based; conditions: Rattus norvegicus, contraction by U46619 (142 nM), rat thoracic aorta, 37° C.; read-out: VASOCONSTRICTION RAT AORTA IC 50
Method: (B) Inhibition of the U46619 induced rat aorta vasoconstriction:
male rats weighing about 300 g are put to death by euthanasia; the thoracic aorta is rapidly taken out. A sample of about 1 cm is cut into a spiral, and placed in a vat containing 20 ml of nutrient medium (Krebs-Henseleit) kept a 37° C. and oxygenated (O2 95%, CO2 5%). The contractions are recorded with an isotonic strain gauge. After a rest of 45 mn, supramaximum contractions are provoked by the addition of an analogue of TXA2 (U46619: 142 nM) to the survival medium. A plateau is generally reached after 10 mn of contact, the latter not exceeding 25 mn. A rest of 30 mn and a plurality of rinses take place after each contraction. The products are added 10 mn after U46619 and allowed to rest 15 mn, after which delay the inhibition is measured. The inhibitory concentration 50 (IC) is determined for each compound studied and on a minimum of 3 aortas. The activities of the compounds of the present invention are described in example 108.
as §1

SMILES	IC50 [1] [nM]	IC50 [2] [nM]
O=C(O)Cc1ccc(CC2(CNS(=O)(=O)c3ccc(C(F)(F)F)cc3)CCCC2)cc1 [Example 55, 4-[[1-[[[(4-Trifluoromethylphenyl)sulfonyl]amino]methyl]cyclopentyl]methyl]benzeneacetic acid]	2900	100
O=C(O)Cc1ccc(CC2(CNS(=O)(=O)c3cccc(C(F)(F)F)c3)CCCC2)cc1 [Example 56, 4-[[1-[[[(3-Trifluoromethylphenyl)sulfonyl]amino]methyl]cyclopentyl]methyl]benzeneacetic acid]	5000	1000
CC(=O)c1ccc(S(=O)(=O)NCC2(Cc3ccc(CC(=O)O)cc3)CCCC2)cc1 [Example 62, 4-[[1-[[[(4-Acetylphenyl)sulfonyl]amino]methyl]cyclopentyl]methyl]benzeneacetic acid]	3000	750
CS(=O)(=O)c1ccc(S(=O)(=O)NCC2(Cc3ccc(CC(=O)O)cc3)CCCC2)cc1 [Example 63, 4-[[1-[[[(4-Methylsulfonylphenyl)sulfonyl]amino]methyl]cyclopentyl]methyl]benzeneacetic acid]	> 5000	> 1000
O=C(O)Cc1ccc(CC2(CNS(=O)(=O)c3ccc(OC(F)(F)F)cc3)CCCC2)cc1 [Example 64, 4-[[1-[[[(4-Trifluoromethoxyphenyl)sulfonyl]amino]methyl]cyclopentyl]methyl]benzeneacetic acid]	2600	130
O=C(O)Cc1ccc(CC2(CNS(=O)(=O)c3c[nH]cn3)CCCC2)cc1 [Example 69, 4-[[1-[[[(Imidazol-4-yl)sulfonyl]amino]methyl]cyclopentyl]methyl]benzeneacetic acid]	> 5000	> 1000
O=C(Cc1ccc(CC2(CNS(=O)(=O)c3ccc(Cl)cc3)CCCC2)cc1)N1CCOCC1 [Example 74, 4-Chloro-N-[[1-[[4-[2-(morpholin-4-yl)-2-oxoethyl]phenyl]methyl]cyclopentyl]methyl]benzenesulfonamide]	> 5000	> 1000
O=C(O)CCNC(=O)Cc1ccc(CC2(CNS(=O)(=O)c3ccc(Cl)cc3)CCCC2)cc1 [Example 76, 3-[[2-[4-[[1-[[[(4-Chlorophenyl)sulfonyl]amino]methyl]cyclopentyl]methyl]phenyl]-1-oxoethyl]amino]propanoic acid]	2900	> 1000
CCOC(=O)Cc1ccc(CC2(CNS(=O)(=O)c3ccc(Cl)cc3)CCCC2)cc1 [Example 77, Ethyl 4-[[1-[[[(4-chlorophenyl)sulfonyl]amino]methyl]cyclopentyl]methyl]benzeneacetate]	2400	> 1000
CCN(CC)CCOC(=O)Cc1ccc(CC2(CNS(=O)(=O)c3ccc(Cl)cc3)CCCC2)cc1 [Example 79, 2-(Diethylamino)ethyl 4-[[1-[[[(4-Chlorophenyl)sulfonyl]amino]methyl]cyclopentyl]methyl]benzeneacetate]	100	170
O=S(=O)(O)Cc1ccc(CC2(CNS(=O)(=O)c3ccc(Cl)cc3)CCCC2)cc1 [Example 80, 4-[[1-[[[(4-Chlorophenyl)sulfonyl]amino]methyl]cyclopentyl]methyl]benzenemethanesulfonic acid]	2900	190
O=S(=O)(NCC1(Cc2ccc(Cc3nnn[nH]3)cc2)CCCC1)c1ccc(Cl)cc1 [Example 81, 4-Chloro-N-[1-[[[4-[(1H-tetrazol-5-yl)methyl]phenyl]methyl]cyclopentyl]methyl]benzenesulfonamide]	1600	60
Nc1ccc(S(=O)(=O)NCC2(Cc3ccc(Cc4nnn[nH]4)cc3)CCCC2)cc1 [Example 82, 4-Amino-N-[1-[[[4-[(1H-tetrazol-5-yl)methyl]phenyl]methyl]cyclopentyl]methyl]benzenesulfonamide]	2000	1000
O=P(O)(O)Cc1ccc(CC2(CNS(=O)(=O)c3ccc(Cl)cc3)CCCC2)cc1 [Example 83, [[4-[[1-[[[(4-Chlorophenyl)sulfonyl]amino]methyl]cyclopentyl]methyl]phenyl]methyl]phosphonic acid]	940	1000

Now from value to compound:

IC50 [1] [nM]	IC50 [2] [nM]	SMILES
> 5000	> 1000	O=C(O)Cc1ccc(CC2(CNS(=O)(=O)c3cccc(Cl)c3)CCCC2)cc1 [Example 52, 4-[[1-[[[(3-Chlorophenyl)sulfonyl]amino]methyl]cyclopentyl]methyl]benzeneacetic acid]
160	10	O=C(O)Cc1ccc(CC2(CNS(=O)(=O)c3ccc(Br)cc3)CCCC2)cc1 [Example 53, 4-[[1-[[[(4-Bromophenyl)sulfonyl]amino]methyl]cyclopentyl]methyl]benzeneacetic acid]
1100	40	O=C(O)Cc1ccc(CC2(CNS(=O)(=O)c3ccc(I)cc3)CCCC2)cc1 [Example 54, 4-[[1-[[[(4-Iodophenyl)sulfonyl]amino]methyl]cyclopentyl]methyl]benzeneacetic acid]
690	100	N#Cc1ccc(S(=O)(=O)NCC2(Cc3ccc(CC(=O)O)cc3)CCCC2)cc1 [Example 57, 4-[[1-[[[(4-Cyanophenyl)sulfonyl]amino]methyl]cyclopentyl]methyl]benzeneacetic acid]
6300	1000	O=C(O)Cc1ccc(CC2(CNS(=O)(=O)c3cccc([N+](=O)[O-])c3)CCCC2)cc1 [Example 58, 4-[[1-[[[(3-Nitrophenyl)sulfonyl]amino]methyl]cyclopentyl]methyl]benzeneacetic acid]
1400	80	O=C(O)Cc1ccc(CC2(CNS(=O)(=O)c3ccc(Cl)cc3Cl)CCCC2)cc1 [Example 59, 4-[[1-[[[(2,4-Dichlorophenyl)sulfonyl]amino]methyl]cyclopentyl]methyl]benzeneacetic acid]
> 5000	> 1000	CC(C)c1ccc(S(=O)(=O)NCC2(Cc3ccc(CC(=O)O)cc3)CCCC2)cc1 [Example 60, 4-[[1-[[[[4-(1-Methylethyl)phenyl]sulfonyl]amino]methyl]cyclopentyl]methyl]benzeneacetic acid]
> 5000	> 1000	CC(C)(C)c1ccc(S(=O)(=O)NCC2(Cc3ccc(CC(=O)O)cc3)CCCC2)cc1 [Example 61, 4-[[1-[[[[4-(1,1-Dimethylethyl)phenyl]sulfonyl]amino]methyl]cyclopentyl]methyl]benzeneacetic acid]
350	270	COc1ccc(S(=O)(=O)NCC2(Cc3ccc(CC(=O)O)cc3)CCCC2)cc1 [Example 65, 4-[[1-[[[(4-Methoxyphenyl)sulfonyl]amino]methyl]cyclopentyl]methyl]benzeneacetic acid]
> 5000	> 1000	Cc1cnc2c(S(=O)(=O)NCC3(Cc4ccc(CC(=O)O)cc4)CCCC3)cccc2c1 [Example 66, 4-[[1-[[[(3-Methylquinol-8-yl)sulfonyl]amino]methyl]cyclopentyl]methyl]benzeneacetic acid]
1500	280	O=C(O)Cc1ccc(CC2(CNS(=O)(=O)c3cccs3)CCCC2)cc1 [Example 67, 4-[[1-[[[(Thien-2-yl)sulfonyl]amino]methyl]cyclopentyl]methyl]benzeneaceticacid]
4000	400	O=C(O)Cc1ccc(CC2(CNS(=O)(=O)c3ccc(Cl)s3)CCCC2)cc1 [Example 68, 4-[[1-[[[(5-Chlorothien-2-yl)sulfonyl]amino]methyl]cyclopentyl]methyl]benzeneacetic acid]
> 5000	1000	O=C(O)Cc1ccc(CC2(CNS(=O)(=O)c3ccco3)CCCC2)cc1 [Example 70, 4-[[1-[[[(fur-2-yl)sulfonyl]amino]methyl]cyclopentyl]methyl]benzeneacetic acid]
3000	40	O=C(O)Cc1ccc(CC2(CNS(=O)(=O)c3ccc(O)cc3)CCCC2)cc1 [Example 71, 4-[[1-[[[(4-Hydroxyphenyl)sulfonyl]amino]methyl]cyclopentyl]methyl]benzeneacetic acid]
640	40	O=C(O)Cc1ccc(CC2(CNS(=O)(=O)c3ccc(Cl)cc3)CC2)cc1 [Example 72, 4-[[1-[[[(4-Chlorophenyl)sulfonyl]amino]methyl]cyclopropyl]methyl]benzeneacetic acid]
700	200	O=C(O)Cc1ccc(CC2(CNS(=O)(=O)c3ccc(Cl)cc3)CCCCCC2)cc1 [Example 73, 4-[[1-[[[(4-Chlorophenyl]sulfonyl]amino]methyl]cycloheptyl]methyl]benzeneacetic acid]
> 5000	> 1000	NC(=O)Cc1ccc(CC2(CNS(=O)(=O)c3ccc(Cl)cc3)CCCC2)cc1 [Example 75, 4-[[1-[[[(4-Chlorophenyl)sulfonyl]amino]methyl]cyclopentyl]methyl]benzeneacetamide]
